From patent US20240285615A1, “MEDICAMENTS COMPRISING GLYCOSIDASE INHIBITORS” (priority 2021, published 2024)
Like-named read-outs stand apart in the source and are kept apart here.

Key:
[1] = tested on: patients with probable PSP Richardson's syndrome; experiment: Phase 2 clinical trial in progressive supranuclear palsy (Example 6); format: in vivo, human; settings: 300 mg or 150 mg TID PO, clinical study protocol
Excerpt: CLINICAL STUDY PROTOCOL: A Randomized, Double-blind, Placebo-Controlled Study to Evaluate the Efficacy and Safety of compound of formula (I) for the Treatment of Progressive Supranuclear Palsy
PRIMARY OBJECTIVE: To evaluate the safety and tolerability of two different doses of compound (I) compared with placebo for the treatment of PSP
STUDY DESIGN: This is a randomized, multi-centre, double-blind, placebo-controlled trial to study the safety and tolerability of compound (I) in patients with probable PSP Richardson's syndrome. Approximately 40 patients (40 to 85 years of age, inclusive) are randomized in a 2:1:1 ratio to 300 mg or 150 mg or placebo TID PO with meals.
For all subjects, a screening visit is performed up to 6 weeks prior to dosing to determine eligibility. Eligible patients take investigational product (compound (I) or placebo) orally daily for about 12 weeks. Safety and tolerability data are collected at required visits to the study site. In addition, an “at home visit” for safety assessment and blood draw is organized. An open-label extension period of 52 weeks takes place upon completion of the initial double-blind treatment period. […]
PRIMARY SAFETY ENDPOINT: Frequency of treatment-emergent adverse events recorded in the three treatment arms at Week 12.

[2] = Compatibility studies and short-term stability studies of drug substance with excipients; format: physicochemical
Excerpt: Compound (I) is a drug substance with suitable physical, biopharmaceutical, and chemical characteristics for development of an immediate release capsule formulation. […] The blend powder to be filled into the capsules contains common excipients: microcrystalline cellulose, croscarmellose sodium, colloidal silicon dioxide and magnesium stearate. All ingredients were used in concentrations typical for solid oral formulations. The selection of excipients, for the capsule powder, was based on compatibility studies and short-term stability studies. […] The final DP contains the following excipients for the tablet core: microcrystalline cellulose, povidone, croscarmellose sodium, copovidone, silica colloidal anhydrous and sodium stearyl fumarate. A water-based film coat made from hypromellose, macrogol, titanium dioxide and iron oxide was sprayed onto the core tablets. All ingredients were used in quantities typical for oral solid formulations. The selection of excipients was further backed-up by compatibility studies and short-term stability studies of binary mixtures for key ingredients.

[3] = tested on: hTauP301L-Tg mouse model of tauopathy; experiment: In vivo effect on the hTauP301L-Tg mouse model of tauopathy; settings: hTauP301L-Tg mice
Excerpt: Concomitant to the pathology, these mice progressively develop motoric deficits like clasping behaviour accompanied by a diminution of general mobility, and die prematurely at the age of 8-11 months (reMYND unpublished data, Terwel et al., 2005).

[4] = Phase 1 Part 1a: single rising oral doses, fasted, plasma pharmacokinetics; format: in vivo, human; settings: for AUC(0-inf) / Cmax / Tmax / half-life: human, plasma
Excerpt: A Randomized, Double-Blind, Placebo-Controlled, Phase 1 Study to Assess the Safety, Tolerability, Pharmacokinetics and Food Effect of Single and Multiple Doses of Orally Administered Compound of Formula (I) in Healthy Adult and Elderly Subjects The study was a single-centre, randomized, placebo-controlled single- and multiple ascending dose study in healthy male and female (no childbearing potential) volunteers aged 18-80 years. Study objectives were safety, tolerability, food effect and pharmacokinetics. Following identification of safe and tolerable single doses in healthy male subjects aged 18-55 years, separate cohorts were dosed to assess food effect. Furthermore, multiple-dose safety, tolerability, pharmacokinetics, CSF drug levels and pharmacodynamics were assessed in elderly (age 55-80 years) male or healthy non-child-bearing potential female volunteers. [table] The single-dose pharmacokinetics of seven, ascending, dose levels of compound of Formula (I) (20, 40, 80, 160, 300, 600 and 1000 mg of compound (I) fasted state) were evaluated in part 1a of a randomized, placebo-controlled, time lagged, parallel/crossover group study in healthy young volunteers Compound (I) pharmacokinetic data were measured in plasma and in urine up to 72 hours post dose.

[5] = Phase 1 Part 2: cerebrospinal fluid (CSF) pharmacokinetics after multiple BID doses; format: in vivo, human; settings: for Cmax / AUC / half-life / Tmax: human, oral, CSF; for AUC: read-out: AUC0-tau; for Tmax: median (min, max)
Excerpt: Day 1: Twice a day (BID) dosing. Day 2: No dosing. Day 3-11: 9 days of BID dosing. Day 12: one dose in the morning.

[6] = single oral dose 20 mg, fasted, healthy male subjects, arithmetic mean
[7] = single oral dose 40 mg, fasted, healthy male subjects, arithmetic mean
[8] = single oral dose 80 mg, fasted, healthy male subjects, arithmetic mean
[9] = single oral dose 160 mg, fasted, healthy male subjects, arithmetic mean
[10] = single oral dose 300 mg, fasted, healthy male subjects, arithmetic mean
[11] = single oral dose 600 mg, fasted, healthy male subjects, arithmetic mean
[12] = single oral dose 1000 mg, fasted, healthy male subjects, arithmetic mean
[13] = both sexes, 250 mg BID, Day 12, elderly subjects, arithmetic mean
[14] = both sexes, 500 mg BID, Day 12, elderly subjects, arithmetic mean
[15] = 100 mg BID, Day 12, elderly subjects, N=1

With CC(=O)Nc1nnc(N2CCN([C@@H](C)c3ccc4c(c3)OCO4)CC2)s1 [Compound (I)] the “safety and tolerability of the preferred dosage regimen” value [1] was “especially safe and well tolerated”, the “stability of the drug substance” value [2] was “suitably stable” and the compatibility with excipients ([2]; capsule powder: microcrystalline cellulose, croscarmellose sodium, colloidal silicon dioxide, magnesium stearate) was “no incompatibility with the chosen excipients”. The “extent of neuronal pathology” value [3] was “diminishing the extent of neuronal pathology”, the “motoric function (clasping behaviour, beam walk)” value [3] was “improvement in motoric function” and the survival rate [3] was “significant benefit in survival rate”. For the same molecule, the “deviation of dose normalized AUC” value ([4]; AUC over 24 hours, dose levels 300, 600 and 1000 mg) was no more than 10%, the AUC(0-inf) [4, 6] was 473 ng·h/mL and the Cmax [4, 6] was 227 ng/mL. It also gave a Tmax ([4]; single oral dose 20 mg, fasted, healthy male subjects, median (min, max), read-out: Tmax) of 0.5 h, an AUC(0-inf) [4, 7] of 1160 ng·h/mL and a Cmax [4, 7] of 468 ng/mL. For the same molecule, the Tmax ([4]; single oral dose 40 mg, fasted, healthy male subjects, median (min, max), read-out: Tmax) was 1 h, the AUC(0-inf) [4, 8] was 3270 ng·h/mL and the Cmax [4, 8] was 1370 ng/mL. The Tmax ([4]; single oral dose 80 mg, fasted, healthy male subjects, median (min, max), read-out: Tmax) was 0.5 h, the AUC(0-inf) [4, 9] was 7010 ng·h/mL and the Cmax [4, 9] was 1880 ng/mL. It also gave a Tmax ([4]; single oral dose 160 mg, fasted, healthy male subjects, median (min, max), read-out: Tmax) of 1.5 h, an AUC(0-inf) [4, 10] of 15400 ng·h/mL and a Cmax [4, 10] of 3990 ng/mL. The Tmax ([4]; single oral dose 300 mg, fasted, healthy male subjects, median (min, max), read-out: Tmax) was 1.25 h, the AUC(0-inf) [4, 11] was 33300 ng·h/mL and the Cmax [4, 11] was 7180 ng/mL. It also gave a Tmax ([4]; single oral dose 600 mg, fasted, healthy male subjects, median (min, max), read-out: Tmax) of 1.25 h, an AUC(0-inf) [4, 12] of 50200 ng·h/mL and a Cmax [4, 12] of 10100 ng/mL. It also gave a Tmax ([4]; single oral dose 1000 mg, fasted, healthy male subjects, median (min, max), read-out: Tmax) of 1.5 h, a half-life ([4]; male, oral, single dose 20 to 1000 mg, read-out: terminal half-life (t½), range of means at the different dose levels) of 3.9 to 10.7 h and a half-life ([4]; male, oral, single dose 20 mg to 1000 mg, read-out: mean terminal half-life, range over the 7 dose levels) of 4.59 to 8.84 h. The Tmax ([4]; male, oral, single dose 20 mg to 1000 mg, read-out: median Tmax, range over dose levels) was 0.5 to 1.5 h, the half-life ([4]; male, po, 20 mg, single oral dose 20 mg, fasted, healthy male subjects, arithmetic mean, read-out: t1/2 (converted)) was 4.59 h and the half-life ([4]; male, po, 40 mg, single oral dose 40 mg, fasted, healthy male subjects, arithmetic mean, read-out: t1/2 (converted)) was 5.95 h. It also gave a half-life ([4]; male, po, 80 mg, single oral dose 80 mg, fasted, healthy male subjects, arithmetic mean, read-out: t1/2 (converted)) of 8.84 h, a half-life ([4]; male, po, 160 mg, single oral dose 160 mg, fasted, healthy male subjects, arithmetic mean, read-out: t1/2 (converted)) of 6.83 h and a half-life ([4]; male, po, 300 mg, single oral dose 300 mg, fasted, healthy male subjects, arithmetic mean, read-out: t1/2 (converted)) of 7.95 h. For the same molecule, the half-life ([4]; male, po, 600 mg, single oral dose 600 mg, fasted, healthy male subjects, arithmetic mean, read-out: t1/2 (converted)) was 6.07 h, the half-life ([4]; male, po, 1000 mg, single oral dose 1000 mg, fasted, healthy male subjects, arithmetic mean, read-out: t1/2 (converted)) was 6.6 h and the “dose proportionality of Cmax” value ([4]; single dose, dosing range 20 mg to 1000 mg) was “Dose proportionality was observed”. The “dose proportionality of AUCs” value ([4]; single dose, dosing range 300 mg to 1000 mg) was “Dose proportionality was observed”, the “blood-brain-barrier penetration (detection in CSF)” value ([5]; Day 12 after multiple doses) was “penetrated through the blood-brain-barrier” and the Cmax [5, 13] was 92.5 ng/mL. The AUC [5, 13] was 485 ng·h/mL, the half-life ([5]; both sexes, 250 mg BID, Day 12, elderly subjects, arithmetic mean, read-out: t1/2 (converted)) was 10.3 h and the Tmax ([5]; both sexes, 250 mg BID, Day 12, elderly subjects) was 3 h. It also gave a Cmax [5, 14] of 282 ng/mL, an AUC [5, 14] of 1400 ng·h/mL and a half-life ([5]; both sexes, 500 mg BID, Day 12, elderly subjects, arithmetic mean, read-out: t1/2 (converted)) of 10.8 h. It also gave a Tmax ([5]; both sexes, 500 mg BID, Day 12, elderly subjects) of 2.02 h, a half-life ([5]; both sexes, 100 to 500 mg BID, read-out: terminal half-life (t½), range of means) of 3.9 to 10.7 h and a Cmax [5, 15] of 46.7 ng/mL. It also gave an AUC [5, 15] of 236 ng·h/mL, a half-life ([5]; 100 mg BID, Day 12, elderly subjects, N=1, read-out: t1/2 (converted)) of 5.78 h and a Tmax [5, 15] of 4.03 h.
